According to patent US7649001B2:
Numbering of substitutions follows the chain as printed. Structures can show the parent of a compound that is named as a salt.

Assays:
[1] = system: Human prostate cancer cell strain LNCaP-FGC; assay: cells; format: cell-based; settings: 72 h, read-out: Promotion rate (%) on PSA production at 100 nM
[2] = biological target: T1, wild type androgen receptor (AR) (Homo sapiens, UniProt P10275); assay: AR-binding inhibition test (wild type); settings: read-out: Inhibition rate (%) at 100 nM Wild type
T1 sequence (P10275 1-920): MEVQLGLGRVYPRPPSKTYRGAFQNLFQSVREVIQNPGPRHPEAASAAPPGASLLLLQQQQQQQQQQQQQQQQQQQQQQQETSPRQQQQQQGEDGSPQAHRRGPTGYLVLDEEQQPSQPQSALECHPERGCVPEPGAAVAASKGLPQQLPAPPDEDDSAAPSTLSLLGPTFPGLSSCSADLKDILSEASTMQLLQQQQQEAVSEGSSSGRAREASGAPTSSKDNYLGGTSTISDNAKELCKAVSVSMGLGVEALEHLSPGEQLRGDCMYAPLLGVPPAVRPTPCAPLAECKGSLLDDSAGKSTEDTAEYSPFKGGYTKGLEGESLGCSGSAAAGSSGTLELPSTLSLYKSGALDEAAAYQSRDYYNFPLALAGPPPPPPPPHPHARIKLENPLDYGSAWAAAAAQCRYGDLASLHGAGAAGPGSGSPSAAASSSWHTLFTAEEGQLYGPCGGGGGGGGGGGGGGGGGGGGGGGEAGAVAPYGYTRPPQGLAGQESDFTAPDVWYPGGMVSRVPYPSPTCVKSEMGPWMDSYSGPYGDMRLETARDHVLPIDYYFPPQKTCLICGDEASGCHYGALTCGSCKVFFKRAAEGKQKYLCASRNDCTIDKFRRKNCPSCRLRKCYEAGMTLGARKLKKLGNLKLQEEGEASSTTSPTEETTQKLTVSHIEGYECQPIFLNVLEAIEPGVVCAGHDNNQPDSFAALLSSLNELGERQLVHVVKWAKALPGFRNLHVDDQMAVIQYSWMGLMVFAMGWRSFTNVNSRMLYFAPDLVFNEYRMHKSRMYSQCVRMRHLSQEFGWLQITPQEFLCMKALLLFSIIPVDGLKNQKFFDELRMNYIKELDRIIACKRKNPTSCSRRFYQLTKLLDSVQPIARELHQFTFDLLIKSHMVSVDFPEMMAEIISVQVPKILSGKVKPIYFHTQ

[3] = biological target: T2, LNCaP type mutant androgen receptor (AR) (Homo sapiens, UniProt P10275, T878A); assay: AR-binding inhibition test (LNCaP type); settings: read-out: Inhibition rate (%) at 100 nM LNCaP type
T2 sequence (P10275 1-920 T878A): T1 sequence (P10275 1-920) with T878A

| Compound | melting point [°C] | activation at 0.1 µM [1] [%] | inhibition at 0.1 µM [2] [%] | inhibition at 0.1 µM [3] [%] |
| --- | --- | --- | --- | --- |
| C[C@H]1[C@@H](C#N)CCN1c1ccc(C#N)c2ccccc12 | 143 to 145 | – | – | – |
| CC1(CO)CCCN(c2ccc(C#N)c3ccccc23)C1 (centres unmarked) [Compound 56, 4-[3-(hydroxymethyl)-3-methyl-1-piperidinyl]-1-naphthonitrile] | – | 96 | 80 | 91 |
| N#Cc1ccc(N2CCC(O)C2)c2ccccc12 (centres unmarked) [Compound 18, 4-(3-hydroxy-1-pyrrolidinyl)-1-naphthonitrile] | 138 to 139 | – | 96 | 79 |
| C=C[C@@H]1CCCN1c1ccc(C#N)c2ccccc12 [Compound 82, 4-[(2S)-2-vinyl-1-pyrrolidinyl]-1-naphthonitrile] | – | – | 85 | 94 |
| C[C@H]1[C@@H](C(N)=O)CCN1c1ccc(C#N)c2ccccc12 | 204 to 206 | – | – | – |
| CC1CCCN1c1ccc(C#N)c2occc12 (centres unmarked) [Compound 95, 4-(2-methyl-1-pyrrolidinyl)-1-benzofuran-7-carbonitrile] | 82 to 83 | – | 92 | 105 |
| N#Cc1c(Br)cc(N2CCCCC2)c2ccccc12 | 179 to 180 | – | – | – |
| N#Cc1ccc(N2CCCCC2)c2ccccc12 [Compound 3, 4-(1-piperidinyl)-1-naphthonitrile] | – | 90 | 97 | 97 |
| CO[C@@H]1CCN(c2ccc(C#N)c3ccccc23)[C@H]1C [Compound 139, 4-[(2S,3R)-3-methoxy-2-methyl-1-pyrrolidinyl]-1-naphthonitrile] | – | 73 | 95 | 99 |
| CC1CCCN1c1ccc(C#N)c2ccccc12 (centres unmarked) [Compound 47, 4-(2-methylpyrrolidin-1-yl)-1-naphthonitrile hydrochloride] | – | 88 | 116 | 116 |
| C[C@H]1[C@@H](O)CCN1c1ccc(C#N)c2ccccc12 [Compound 116, 4-[(2S,3S)-3-hydroxy-2-methyl-1-pyrrolidinyl]-1-naphthonitrile] | – | 84 | 99 | 94 |
| N#Cc1ccc(N2CCCC2)c2ccccc12 [Compound 1, 4-(1-pyrrolidinyl)-1-naphthonitrile] | – | – | 88 | 78 |
| N#Cc1ccc(N2CCC(F)C2)c2ccccc12 (centres unmarked) [Compound 99, 4-(3-fluoro-1-pyrrolidinyl)-1-naphthonitrile] | – | 83 | 98 | 92 |
| CN1C(=O)CCN1c1ccc(C#N)c2ccccc12 | 192 to 193 | – | – | – |
| N#Cc1ccc(N2CCCCC2)c2ccsc12 [Compound 73, 4-(1-piperidinyl)-1-benzothiophene-7-carbonitrile] | 99 to 100 | – | 95 | 95 |
| C[C@H]1[C@@H](CO)CCN1c1ccc(C#N)c2ccccc12 [Compound 107, 4-[(2S,3S)-3-(hydroxymethyl)-2-methyl-1-pyrrolidinyl]-1-naphthonitrile] | – | 95 | 95 | 93 |

| Compound | melting point [°C] | activation at 0.1 µM [1] [%] | inhibition at 0.1 µM [2] [%] | inhibition at 0.1 µM [3] [%] |
| --- | --- | --- | --- | --- |
| C[C@H]1CCCN1c1ccc(C#N)c2ccccc12 [Compound 85, 4-[(2S)-2-methyl-1-pyrrolidinyl]-1-naphthonitrile] | – | 92 | 95 | 99 |
| COC[C@H]1CCCN1c1ccc(C#N)c2ccccc12 (as salt: hydrochloride) [Compound 45, 4-[(2R)-2-(methoxymethyl)pyrrolidin-1-yl]-1-naphthonitrile hydrochloride] | 88 to 89 | – | – | – |
| CO[C@@H]1C[C@H](C)N(c2ccc(C#N)c3ccccc23)C1 | 88 to 89 | – | – | – |
| CC1CCCN1c1ccc(C#N)c2sccc12 (centres unmarked) [Compound 76, 4-(2-methyl-1-pyrrolidinyl)-1-benzothiophene-7-carbonitrile] | – | 85 | 102 | 97 |
| C[C@H]1[C@H](O)CCN1c1ccc(C#N)c2ccccc12 [Compound 113, 4-[(2S,3R)-3-hydroxy-2-methyl-1-pyrrolidinyl]-1-naphthonitrile] | – | 88 | 97 | 98 |
| N#Cc1ccc(N2CCCCCC2)c2ccccc12 [Compound 10, 4-(1-azepaneyl)-1-naphthonitrile] | – | 75 | 112 | 144 |
| COC[C@H]1CCCN1c1ccc(C#N)c2ccccc12 [Compound 45, 4-[(2R)-2-(methoxymethyl)pyrrolidin-1-yl]-1-naphthonitrile hydrochloride] | – | – | 105 | 110 |
| N#Cc1ccc(N2CCC(CCO)C2)c2ccccc12 (centres unmarked) [Compound 141, 4-[3-(2-hydroxyethyl)-1-pyrrolidinyl]-1-naphthonitrile] | – | 87 | 96 | 101 |
| C=C[C@H]1CCCN1c1ccc(C#N)c2ccccc12 [Compound 81, 4-[(2R)-2-vinyl-1-pyrrolidinyl]-1-naphthonitrile] | – | 98 | 104 | 100 |
| C[C@H]1[C@@H](O)CCN1c1ccc(C#N)c2sccc12 [Compound 118, 4-[(2S,3S)-3-hydroxy-2-methyl-1-pyrrolidinyl]-1-benzothiophene-7-carbonitrile] | – | 88 | 96 | 95 |
| CC[C@H]1CCCN1c1ccc(C#N)c2ccccc12 [Compound 83, 4-[(2S)-2-ethyl-1-pyrrolidinyl]-1-naphthonitrile] | – | 95 | 95 | 102 |
| CC[C@@H]1CCCN1c1ccc(C#N)c2ccccc12 [Compound 84, 4-[(2R)-2-ethyl-1-pyrrolidinyl]-1-naphthonitrile] | – | – | 88 | 93 |
| N#Cc1ccc(N2CCC(CO)C2)c2ccccc12 (centres unmarked) [Compound 50, 4-[3-(hydroxymethyl)pyrrolidin-1-yl]-1-naphthonitrile hydrochloride] | – | 88 | 91 | 102 |
| CC(C)[C@H]1CCCN1c1ccc(C#N)c2ccccc12 [Compound 144, 4-[(2R)-2-isopropyl-1-pyrrolidinyl]-1-naphthonitrile] | – | 87 | 103 | 102 |
| N#Cc1ccc(N2CCCC(CO)C2)c2ccccc12 (centres unmarked) [Compound 19, 4-[3-(hydroxymethyl)-1-piperidinyl]-1-naphthonitrile] | – | 70 | 75 | 91 |
